Laboratory results taken from ChEMBL document CHEMBL1201862, “PubChem BioAssay data set” (2004).
Activity calls are given as the source filed them.

How the values were obtained:
Hexokinase HKDC1 = target: T1, Hexokinase HKDC1 (Homo sapiens, UniProt Q2TB90); assay: HKDC1 hexokinase inhibitors, dose response, biochemical, W721R variant (AID 504729); assay type: functional
T1 sequence (Q2TB90 whole entry): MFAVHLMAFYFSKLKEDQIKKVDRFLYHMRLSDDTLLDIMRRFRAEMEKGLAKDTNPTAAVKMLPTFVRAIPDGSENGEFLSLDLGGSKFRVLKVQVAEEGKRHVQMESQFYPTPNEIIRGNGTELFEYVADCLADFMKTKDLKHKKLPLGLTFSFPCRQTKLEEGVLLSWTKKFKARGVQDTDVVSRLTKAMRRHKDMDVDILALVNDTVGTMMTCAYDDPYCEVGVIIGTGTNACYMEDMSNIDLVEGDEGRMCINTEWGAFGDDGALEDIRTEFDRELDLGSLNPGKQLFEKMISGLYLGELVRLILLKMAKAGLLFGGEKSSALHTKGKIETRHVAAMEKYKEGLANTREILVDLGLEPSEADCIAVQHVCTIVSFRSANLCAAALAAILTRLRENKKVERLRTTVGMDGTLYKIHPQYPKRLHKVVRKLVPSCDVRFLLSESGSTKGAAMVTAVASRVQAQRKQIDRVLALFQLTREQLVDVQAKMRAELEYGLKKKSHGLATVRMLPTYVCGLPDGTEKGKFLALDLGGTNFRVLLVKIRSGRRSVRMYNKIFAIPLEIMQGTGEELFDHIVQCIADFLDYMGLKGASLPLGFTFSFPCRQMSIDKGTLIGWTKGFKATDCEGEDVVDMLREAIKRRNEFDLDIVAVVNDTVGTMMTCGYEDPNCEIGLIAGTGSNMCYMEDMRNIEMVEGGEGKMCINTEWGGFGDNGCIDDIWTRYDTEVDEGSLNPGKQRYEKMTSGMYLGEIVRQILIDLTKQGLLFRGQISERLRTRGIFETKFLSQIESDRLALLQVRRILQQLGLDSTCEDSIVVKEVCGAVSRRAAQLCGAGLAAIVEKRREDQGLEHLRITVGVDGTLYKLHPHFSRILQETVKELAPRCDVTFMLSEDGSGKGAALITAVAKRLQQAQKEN

[1] = target: T2, Endoribonuclease toxin MazF (Escherichia coli K-12, UniProt P0AE70); assay: MazF toxin RNase activators, dose response, biochemical, fluorescence, single-stranded RNA substrate, uHTS hits (AID 588481); assay type: functional
T2 sequence (P0AE70 whole entry): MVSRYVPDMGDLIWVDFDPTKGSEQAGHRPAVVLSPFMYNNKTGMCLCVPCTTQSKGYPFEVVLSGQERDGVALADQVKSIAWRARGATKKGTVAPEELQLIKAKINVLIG

Vero = Vero cell cytotoxicity, cytotoxicity control for flavivirus capping enzyme inhibitors (AID 588742); assay type: functional; settings: Chlorocebus sabaeus
[2] = target: Delta-type opioid receptor (Homo sapiens, UniProt P41143); assay: Counterscreen for agonists of heterodimerization of the mu 1 (OPRM1) and delta 1 (OPRD1) opioid receptors: Luminescence-based cell-based high throughput dose response assay to identify agonists of OPRD1 homodimerization. [Related pubchem assays (depositor defined):AID504326, AID504355, AID504692, AID504904, AID504905]; assay type: functional
Sequence of Delta-type opioid receptor (P41143 whole entry): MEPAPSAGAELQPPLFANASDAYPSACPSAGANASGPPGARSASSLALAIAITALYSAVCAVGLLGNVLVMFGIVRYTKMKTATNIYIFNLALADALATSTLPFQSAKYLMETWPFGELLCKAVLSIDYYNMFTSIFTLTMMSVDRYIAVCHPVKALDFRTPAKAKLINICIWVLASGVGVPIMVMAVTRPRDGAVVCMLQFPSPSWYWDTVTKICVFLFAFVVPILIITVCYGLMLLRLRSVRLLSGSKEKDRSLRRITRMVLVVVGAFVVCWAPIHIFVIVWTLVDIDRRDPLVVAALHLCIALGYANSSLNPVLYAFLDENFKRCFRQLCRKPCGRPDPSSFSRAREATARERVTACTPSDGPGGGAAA

[3] = target: T2, Endoribonuclease toxin MazF; assay: fluorescent RNA oligo signal without MazF, dose response, counter-screen for MazEF activator project, biochemical, fluorescence, single-stranded RNase substrate (AID 588502); assay type: functional
Galanin receptor type 3 = target: T3, Galanin receptor type 3 (Homo sapiens, UniProt O60755); assay: Fluorescence-based cell-based primary high throughput dose response assay to identify antagonists of the Galanin Receptor 3 (GalR3).; assay type: functional
T3 sequence (O60755 whole entry): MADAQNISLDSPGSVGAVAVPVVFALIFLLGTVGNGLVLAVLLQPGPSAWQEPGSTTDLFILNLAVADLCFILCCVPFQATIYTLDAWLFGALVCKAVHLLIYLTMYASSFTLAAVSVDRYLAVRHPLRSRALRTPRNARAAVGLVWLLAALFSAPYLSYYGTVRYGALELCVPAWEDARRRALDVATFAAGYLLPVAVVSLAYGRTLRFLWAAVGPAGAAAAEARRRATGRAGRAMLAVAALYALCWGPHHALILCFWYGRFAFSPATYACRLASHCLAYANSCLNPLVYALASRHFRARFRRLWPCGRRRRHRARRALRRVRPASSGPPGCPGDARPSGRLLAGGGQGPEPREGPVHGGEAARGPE

[4] = THP-1 cell cytotoxicity, dose response, cytotoxicity control for Vif-APOBEC3G degradation inhibitor project, THP-1 cells (AID 1117359); assay type: functional; settings: Human immunodeficiency virus 1, THP-1
[5] = target: Photoreceptor-specific nuclear receptor (Homo sapiens, UniProt Q9Y5X4); assay type: functional;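 further: potency for compounds that break the NR2E3 corepressor complex and count as activators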
Sequence of Photoreceptor-specific nuclear receptor (Q9Y5X4 whole entry): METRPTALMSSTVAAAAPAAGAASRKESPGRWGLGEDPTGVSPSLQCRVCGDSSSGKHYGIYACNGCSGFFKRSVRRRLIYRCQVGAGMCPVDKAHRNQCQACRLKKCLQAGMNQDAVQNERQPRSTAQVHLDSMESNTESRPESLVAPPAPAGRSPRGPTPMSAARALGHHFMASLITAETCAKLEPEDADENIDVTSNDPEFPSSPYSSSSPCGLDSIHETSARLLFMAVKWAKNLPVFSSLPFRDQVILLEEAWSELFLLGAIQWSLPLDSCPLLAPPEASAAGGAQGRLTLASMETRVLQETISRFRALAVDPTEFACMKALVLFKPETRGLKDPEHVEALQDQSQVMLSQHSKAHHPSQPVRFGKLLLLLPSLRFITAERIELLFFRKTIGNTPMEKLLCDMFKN

[6] = tested on: Streptococcus sp. 'group A'; assay: growth inhibition of control SK(-) GAS strain, dose response, counter-screen for streptokinase expression inhibitor project, luminescence, kanamycin, BacTiterGlo, confirmation (AID 1900); assay type: functional, organism-based
[7] = target: T4, Tyrosine-protein phosphatase non-receptor type 7 (Homo sapiens, UniProt P35236); assay type: functional
T4 sequence (P35236 whole entry): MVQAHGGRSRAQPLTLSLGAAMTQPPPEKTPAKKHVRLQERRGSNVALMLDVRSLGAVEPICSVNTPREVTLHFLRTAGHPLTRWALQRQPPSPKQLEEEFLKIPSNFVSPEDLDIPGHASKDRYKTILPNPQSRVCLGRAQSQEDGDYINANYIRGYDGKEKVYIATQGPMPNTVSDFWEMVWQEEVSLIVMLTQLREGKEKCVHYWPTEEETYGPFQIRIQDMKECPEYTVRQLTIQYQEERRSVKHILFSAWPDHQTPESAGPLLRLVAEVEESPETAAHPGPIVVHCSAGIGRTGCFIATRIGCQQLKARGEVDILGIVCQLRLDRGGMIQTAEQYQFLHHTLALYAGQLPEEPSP

[8] = inhibitors of SNCA 5'UTR-driven reporter translation, confirmation, H4 neuroglioma cells, luminescence (AID 1988); assay type: functional, cell-based
[9] = target: Transitional endoplasmic reticulum ATPase (Homo sapiens, UniProt P55072, C522A); assay: C522A mutant p97 ATPase inhibitors, dose response, counter-screen for p97 inhibitor project, biochemical, luminescence (AID 1544)
Sequence of Transitional endoplasmic reticulum ATPase (P55072 2-806 C522A limits assumed): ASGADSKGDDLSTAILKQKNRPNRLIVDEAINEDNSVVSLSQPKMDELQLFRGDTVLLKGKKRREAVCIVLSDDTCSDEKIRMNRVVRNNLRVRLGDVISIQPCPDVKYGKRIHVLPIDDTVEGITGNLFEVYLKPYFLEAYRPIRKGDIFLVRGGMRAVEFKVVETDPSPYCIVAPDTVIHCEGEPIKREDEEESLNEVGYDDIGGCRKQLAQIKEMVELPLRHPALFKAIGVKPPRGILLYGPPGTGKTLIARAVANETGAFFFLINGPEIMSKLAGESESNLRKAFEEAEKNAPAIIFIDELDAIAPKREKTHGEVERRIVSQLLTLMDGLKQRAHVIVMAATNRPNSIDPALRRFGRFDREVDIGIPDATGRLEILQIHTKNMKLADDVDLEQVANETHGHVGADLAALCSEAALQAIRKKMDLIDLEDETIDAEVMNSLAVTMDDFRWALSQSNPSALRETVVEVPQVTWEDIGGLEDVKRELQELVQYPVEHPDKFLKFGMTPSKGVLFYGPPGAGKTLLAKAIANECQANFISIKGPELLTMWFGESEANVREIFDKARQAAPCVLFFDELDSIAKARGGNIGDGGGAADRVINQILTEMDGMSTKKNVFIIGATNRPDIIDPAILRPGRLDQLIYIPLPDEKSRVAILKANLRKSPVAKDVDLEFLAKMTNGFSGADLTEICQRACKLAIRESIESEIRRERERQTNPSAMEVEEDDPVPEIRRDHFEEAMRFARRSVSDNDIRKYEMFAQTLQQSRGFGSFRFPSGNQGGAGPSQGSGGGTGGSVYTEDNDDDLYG

[10] = growth suppression of beta-catenin-knockout colon cells, dose response, cell-based, HCT116, human colon tumor (AID 1045); assay type: functional;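 further: HCT116 colon tumor cells with beta catenin knocked out; cells exposed to compound for 60 hours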
[11] = HepG2 cell cytotoxicity, dose response, cytotoxicity control for non-replicating M. tuberculosis project (AID 489018); assay type: functional; settings: Mycobacterium tuberculosis
[12] = Intein inhibitors as potential Tuberculosis drugs, a cytotoxicity screen. [Related pubchem assays (depositor defined):AID2221, AID2223, AID434968, AID435010, AID449749, AID449750, AID489010]; assay type: functional
cells = assay type: functional

Compound	IC50 (Hexokinase HKDC1)	EC50 [1]	CC50 (Vero)	EC50 [2]	EC50 [3]	IC50 (Galanin receptor type 3)	CC50 [4]	IC50 [5]	EC50 [6]	IC50 [7]	EC50 [8]	IC50 [9]	EC50 [10]	CC50 [11]	CC50 [12]	IC50 (cells)
O=C1C=C(c2c(O)ccc3ccccc23)c2ccccc2C1=O	2.47 µM (active)	7.31 µM (active)	22.1 µM (active)	> 92.4 µM (inactive)	> 99 µM (inactive)	> 3.32 µM (active)	7.1 µM (active)									
Cc1nc2c(=O)n(C)c(=O)nc-2n(C)n1								> 39.8 µM (not active)	4.74 µM (active)	< 1.24 µM (active)	136 nM (active)	> 50 µM (not active)	781 nM (active)	4.16 µM (active)	7.94 µM (active)	2.27 µM (active)
